# Data as given in the supplement of paper PMC10307832.
# Columns and labels:
# Assay in all cases: relative viability (nuclei count vs DMSO), 5 days (fraction); higher = more cells survive
# AT-7519 + Linsitinib = compound: O=C(NC1CCNCC1)c1n[nH]cc1NC(=O)c1c(Cl)cccc1Cl [AT-7519] + C[C@]1(O)C[C@@H](c2nc(-c3ccc4ccc(-c5ccccc5)nc4c3)c3c(N)nccn32)C1 [Linsitinib] (partner 1 µM)
# In short: (§1)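 The day after seeding in 1536-well plates, lung cancer cell lines were treated by pin tool with a single drug, or with a fixed anchor-drug dose together with five library-drug doses (not always all listed) in √10 steps. After 5 days, a combined fix-and-stain solution (final 0.05% Triton X-100, 1% formaldehyde, 1 ug/ml Hoechst) was added. Nuclei counted on 4× images gave relative viability as treated counts over vehicle counts, reported as the median of duplicate plates.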
# [1] = compound: C1=CC2=C(C=C(C(=C2N=C1)O)N=NC3=CC4=C(C=C3)C=C(C=C4)S(=O)(=O)O)S(=O)(=O)O + Nc1ncn([C@H]2C[C@H](O)[C@@H](CO)O2)c(=O)n1 [Decitabine] (partner 2 µM)
# In short: as §1
# AT-7519 = compound: O=C(NC1CCNCC1)c1n[nH]cc1NC(=O)c1c(Cl)cccc1Cl [AT-7519]
# In short: (§2)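 Cells of lung cancer lines were placed in 1536-well plates and kept overnight at 37 °C. Pinning then delivered five library-drug doses (not always all listed), spaced by √10, onto plates anchored with vehicle, and the cells were left 5 days without changing medium. One step fixed, permeabilised and stained them with Hoechst, and MetaXpress counted nuclei in 4× images. Viability, as a median over plates, is treated-well nuclei divided by vehicle-well nuclei, with acceptance only at control CV below 25% and at least one doubling.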
# [2] = compound: C1=CC2=C(C=C(C(=C2N=C1)O)N=NC3=CC4=C(C=C3)C=C(C=C4)S(=O)(=O)O)S(=O)(=O)O
# In short: as §2
cell line,measurement,setting,value
UMC-11,relative viability,AT-7519 + Linsitinib; first compound 0.01 µM,1.17
same,relative viability,AT-7519 + Linsitinib; first compound 0.03162 µM,0.89
same,relative viability,AT-7519 + Linsitinib; first compound 0.3162 µM,0.767
same,relative viability,AT-7519 + Linsitinib; first compound 1 µM,0.344
same,relative viability,[1]; first compound 0.08 µM,0.506
same,relative viability,[1]; first compound 0.253 µM,0.644
same,relative viability,[1]; first compound 0.8 µM,0.734
same,relative viability,[1]; first compound 2.53 µM,0.679
same,relative viability,[1]; first compound 8 µM,0.638
same,relative viability,AT-7519; 0.01 µM,0.951
same,relative viability,AT-7519; 0.03162 µM,0.934
same,relative viability,AT-7519; 0.3162 µM,0.765
same,relative viability,AT-7519; 1 µM,0.499
same,relative viability,[2]; 0.08 µM,1.11
same,relative viability,[2]; 0.253 µM,0.942
same,relative viability,[2]; 0.8 µM,0.925
same,relative viability,[2]; 2.53 µM,1.02
same,relative viability,[2]; 8 µM,0.92
